# Experimental data taken from patent publication US20160193240A1, “Ulmoside-A: Useful For Prevention Or Cure Of Metabolic Diseases” (COUNCIL OF SCIENTIFIC & INDUSTRIAL RESEARCH, priority 2013, published 2016).
# Marks after values point to notes of the source that are not given here.
# Legend:
# AdipoR2 = molecular target: T1, AdipoR2 (Mus musculus, UniProt Q8BQS5); experiment: ULMA-AdipoR interaction assay (ULMA beads, C2C12 myotube membrane extracts, western blot); type: binding; conditions: 50 μg membrane extract, 12 hours
# T1 construct: C2C12 myotubes (that express both AdipoR1 and AdipoR2) were incubated with 20 μl control or ULMA-beads; endogenous in cells; host or cells: C2C12 myotubes (mouse), plasma membrane extract
# T1 sequence (Q8BQS5 1-386): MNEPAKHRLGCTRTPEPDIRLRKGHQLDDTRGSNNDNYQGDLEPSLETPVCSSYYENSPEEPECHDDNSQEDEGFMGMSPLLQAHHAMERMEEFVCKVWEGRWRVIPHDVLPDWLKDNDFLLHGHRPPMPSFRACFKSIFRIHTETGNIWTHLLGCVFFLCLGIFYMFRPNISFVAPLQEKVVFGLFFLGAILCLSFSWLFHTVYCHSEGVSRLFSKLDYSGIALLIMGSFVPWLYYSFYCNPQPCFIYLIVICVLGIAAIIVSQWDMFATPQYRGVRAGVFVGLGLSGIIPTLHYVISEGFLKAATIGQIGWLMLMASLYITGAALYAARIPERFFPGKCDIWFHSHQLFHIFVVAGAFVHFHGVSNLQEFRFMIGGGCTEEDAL
# Procedure: B. ULMA interacts with AdipoRs. 20 μl of ULMA beads or control beads were incubated with 50 μg of plasma membrane extracts (prepared using a membrane protein isolation kit; Biomol; according to manufacturer's instructions) prepared from C2C12 myotubes (that expresses both AdipoR1 and AdipoR2) for 12 h on a rotary wheel set at 10 rpm. The supernatant was removed and an aliquot was stored as flowthrough. The pellet was washed 6 times and then the beads were boiled in Lamelli buffer and resolved by 10% denaturing polyacrylamide gel electrophoresis followed by transfer on nitrocellulose membrane and western blotting with anti AdipoR1 or anti-AdipoR2 antibodies. Data represents one of two independent experiments showing identical pattern.
# To investigate whether this enhancement of PPAR ligand activity by ULMA indeed happens through AdipoRs, physical interaction between ULMA and AdipoRs were assessed. The ULMA was immobilized on agarose beads.
# Preparation of ULMA Specific Affinity Matrix:
# ULMA specific Affinity Matrix and Control Matrix were prepared using following protocol.
# 1. 45 mg and 22.5 mg of epoxy-activated agarose beads (sigma) were weighed and put separately in two 1.5 ml eppendorf tubes. Tubes were labeled as tube-1 and tube-2. 2. The beads were washed 6×, 1 ml each, with double distilled water (DDW). […] At this stage beads were ready for incubation with protein source. […]
# wistar rats [1] = experiment: Dexamethasone-mediated reduction in serum osteocalcin in rats (ELISA); type: in vivo, rat; conditions: Dex + ULMA, 14 days
# Procedure: Food intake was measured daily and the rats were weighed each week. The rats were fasted overnight (O/N) on day 14th and on day 15th oral glucose tolerance test was performed. Following oral glucose tolerance test (OGTT), rats were kept with food and water ad libitum for one day. On day 16th, rats were fasted again O/N and then euthanized. At autopsy, from 5 animals/group, tissues were collected and snap frozen in liquid nitrogen. Blood was collected from cardiac punctures. Plasma was separated from whole blood by centrifugation at 3000 rpm for 20 min immediately after collection of blood and stored at −80° C. until further analysis. […] (quadriceps) skeletal muscles were processed for RNA and protein extraction, followed by quantitative real-time PCR (QRT-PCR) analysis. Two animals from each group were used for photography post autopsy.
# wistar rats [2] = experiment: Dexamethasone-mediated reduction of food intake in rats; type: in vivo, rat
# Procedure: Six to eight week old wistar rats (n=6 per group) were housed separately and treated as indicated in the example. Daily food intake was measured and plotted. […] Data represents mean+/−SEM.
# Blood was collected from cardiac punctures.
# Food intake was measured every alternate day by giving measured food to each cage in evening (5.00 PM) and collection of residual food in next morning (9.00 AM) and measuring it. The residual food was subtracted from the food given and plotted.
smiles,measurement,setting,value
"O=C1c2c(cc(O)c([C@@H]3O[C@H](CO)[C@@H](O)[C@H](O)[C@H]3O)c2O)O[C@@H](c2ccc(O)c(O)c2)[C@@H]1O [ULMA, (2S,3S)-(+)-3′,4′,5,7-tetrahydroxydihydroflavonol-6-C-β-D-glucopyranoside]",AdipoR2 detection on ULMA beads vs control beads,AdipoR2,detected on ULMA beads
same,Osteocalcin (ng/ml),wistar rats [1],387.7 ± 16.1^a ng/ml
same,food intake in vehicle treated (ethanol: IP) rats,wistar rats [2]; 5 mg/kg ULMA oral alone,did not affect food intake
same,Dex-caused loss in food intake,wistar rats [2]; Dex + 5 mg/kg ULMA oral,alleviated it
